In patent publication US20150216921A1, “BASE POWDER FROM THE RED RASPBERRY RUBUS IDAEUS AND ACTIVATED MICRONIZED ZEOLITE FOR ATTENUATING NICOTINE ADDICTION, METHOD FOR THE PREPARATION THEREOF AND USE THEREOF” (University fo Hidalgo, priority 2011, published 2015):

Columns and labels:
[1] = test system: anxiety (withdrawal syndrome); assay: Hamilton Anxiety Scale in persons quitting smoking; type: in vivo, humans; conditions: one person, 12 weeks treatment
Description: (§1) 9. Treatment 1:—Two persons, a person and a person […], used ZAM ® (activated and micronized zeolite) at doses of 5 g daily during 14 days.
(§2) 10. Treatment 2:—Two persons, a person and a person […], used the raspberry powder recorded in January 2010 in the Mexican Institute of Industrial Property (patent application number record Mx/ a/2010/ 000827, at folio MX/E/2010/004489). At a dose of 5 g per day during 14 days.
(§3) 11. Treatment 3: A person, a person used a commercial product of raspberry, with similar characteristics to the raspberry powder, mentioned in the previous section, in combination with ZAM® (activated and micronized zeolite) at dose of 5 g per day.
(§4) 12. Treatment 4: Two persons, a person and a person, used raspberry powder registered in the patent application number Mx/a/2010/000827, folio MX/E/2010/004489) in combination with ZAM® (micronized and activated zeolite) in a dose of 7 g per day during 14 days.
13. […]
14. Anxiety was assessed by the Hamilton Anxiety Scale (Hamilton, 1969; Bulbena, 2000; APA, 2000) and the degree of nicotine dependence with Fagerstrom test (1991). […]
16. 14 scale items were evaluated, 13 related to anxiety symptoms and signs, and the last item values the patient's behavior during the assessment interview. […]
17. The physician scored from 0 to 4 points each item, assessing both the intensity and the frequency of it. […]

[2] = test system: physical dependence on nicotine; assay: Fagerstrom test, degree of nicotine dependence; type: in vivo, humans; conditions: persons quitting smoking, at end of treatment
Description: as §1, §2, §3, §4
(§5) 13. Treatment 5:—A person used varenicline, commercial brand, at dose of 1 mg twice daily during 7 days, then 0.5 mg daily for the next 3 days; continuing with 0.5 mg twice a day during 4 days, and finally 1 mg during 1 day, every 12 h. This cycle was repeated 12 weeks. Treatment 5.
14. Anxiety was assessed by the Hamilton Anxiety Scale (Hamilton, 1969; Bulbena, 2000; APA, 2000) and the degree of nicotine dependence with Fagerstrom test (1991).
25. […]

smoking = assay: Smoking cessation and follow-up by telephone; type: in vivo, humans
Description: as §1, §2, §3, §4, §5

[3] = test system: anxiety caused by nicotine withdraw syndrome; assay: High-cross test, anxiety caused by nicotine withdraw syndrome; type: in vivo; conditions: mice, nicotine for 14 consecutive days then suspended
Description: (§6) 7. Using raspberry powder and pure ellagic acid (Sigma Aldrich) two experiments in mice were developed, one was to evaluate the effect of those in the anxiety caused by nicotine withdraw syndrome; and the other was to evaluate the nicotine addiction. Based on the process mentioned in the Mexican Institute of Industrial Property in patent application number Mx/a/2010/000827 record dated 21/ENE/2010, folio MX/E/2010/004489. In the first case the high-cross test was used and in the second test site selectivity paradigm. Nicotine was administered to mice for 14 consecutive days and when it was suspended, anxiety was developed.

nicotine addiction = assay: Site selectivity paradigm, nicotine addiction; type: in vivo; conditions: mice conditioned by nicotine
Description: as §6

[4] = test system: lung tumorogenesis of benzo [a] pyrene; conditions: cited from earlier work
[5] = test system: tumorigenicity of the nitrosamine NNK; conditions: dose of 4g/kg; cited from earlier work

| Compound | Hamilton Anxiety Scale, anxiety during the first month of treatment [1] | Hamilton Anxiety Scale, anxiety during the second and third month [1] | Fagerstrom test, physical dependence after treatment [2] | relapse a month after the treatment (smoking; monitoring by telephone, 1 month after treatment ends) | smoking cessation during treatment period (smoking; persons, during treatment / proposed period) | signs related to anxiety caused by the refraining from exposure to nicotine [3] | nicotine-conditioned behavior (nicotine addiction) | effect against tumorogenesis in lung of benzo [a] pyrene ([4]; intra peritoneal injection) | inhibition in the lung tumorogenesis of benzo [a] pyrene ([4]; mice feed by EA at a dose of 400 mg/kg) [%] | inhibition of tumor multiplicity [5] [%] |
| --- | --- | --- | --- | --- | --- | --- | --- | --- | --- | --- |
| c1cnc2cc3c(cc2n1)[C@@H]1CNC[C@H]3C1 [varenicline] | less anxiety | increased anxiety | high (The Smokers with 6 or 7 points suffer high physical dependence) | fall smoking again | quit smoking in the second month of treatment |  |  |  |  |  |
| O=c1oc2c(O)c(O)cc3c(=O)oc4c(O)c(O)cc1c4c23 [ellagic acid, 2,3,7, 8—tetrahidrobenzopirano [5,4, 3—cde] benzopiran-5-10 diona] |  |  |  |  |  | significantly reduce | modulate this behavior in a significant way | not effective | 90 | 54 |
